Results: patent publication US4229435A, “Preparation of blood fraction” (priority 1978, dated 1980)

Target: T1, F VIII (Homo sapiens, UniProt P00451)
T1 construct: from tissue; host or cells: human citrated blood plasma
T1 sequence (P00451 20-1332 limits assumed): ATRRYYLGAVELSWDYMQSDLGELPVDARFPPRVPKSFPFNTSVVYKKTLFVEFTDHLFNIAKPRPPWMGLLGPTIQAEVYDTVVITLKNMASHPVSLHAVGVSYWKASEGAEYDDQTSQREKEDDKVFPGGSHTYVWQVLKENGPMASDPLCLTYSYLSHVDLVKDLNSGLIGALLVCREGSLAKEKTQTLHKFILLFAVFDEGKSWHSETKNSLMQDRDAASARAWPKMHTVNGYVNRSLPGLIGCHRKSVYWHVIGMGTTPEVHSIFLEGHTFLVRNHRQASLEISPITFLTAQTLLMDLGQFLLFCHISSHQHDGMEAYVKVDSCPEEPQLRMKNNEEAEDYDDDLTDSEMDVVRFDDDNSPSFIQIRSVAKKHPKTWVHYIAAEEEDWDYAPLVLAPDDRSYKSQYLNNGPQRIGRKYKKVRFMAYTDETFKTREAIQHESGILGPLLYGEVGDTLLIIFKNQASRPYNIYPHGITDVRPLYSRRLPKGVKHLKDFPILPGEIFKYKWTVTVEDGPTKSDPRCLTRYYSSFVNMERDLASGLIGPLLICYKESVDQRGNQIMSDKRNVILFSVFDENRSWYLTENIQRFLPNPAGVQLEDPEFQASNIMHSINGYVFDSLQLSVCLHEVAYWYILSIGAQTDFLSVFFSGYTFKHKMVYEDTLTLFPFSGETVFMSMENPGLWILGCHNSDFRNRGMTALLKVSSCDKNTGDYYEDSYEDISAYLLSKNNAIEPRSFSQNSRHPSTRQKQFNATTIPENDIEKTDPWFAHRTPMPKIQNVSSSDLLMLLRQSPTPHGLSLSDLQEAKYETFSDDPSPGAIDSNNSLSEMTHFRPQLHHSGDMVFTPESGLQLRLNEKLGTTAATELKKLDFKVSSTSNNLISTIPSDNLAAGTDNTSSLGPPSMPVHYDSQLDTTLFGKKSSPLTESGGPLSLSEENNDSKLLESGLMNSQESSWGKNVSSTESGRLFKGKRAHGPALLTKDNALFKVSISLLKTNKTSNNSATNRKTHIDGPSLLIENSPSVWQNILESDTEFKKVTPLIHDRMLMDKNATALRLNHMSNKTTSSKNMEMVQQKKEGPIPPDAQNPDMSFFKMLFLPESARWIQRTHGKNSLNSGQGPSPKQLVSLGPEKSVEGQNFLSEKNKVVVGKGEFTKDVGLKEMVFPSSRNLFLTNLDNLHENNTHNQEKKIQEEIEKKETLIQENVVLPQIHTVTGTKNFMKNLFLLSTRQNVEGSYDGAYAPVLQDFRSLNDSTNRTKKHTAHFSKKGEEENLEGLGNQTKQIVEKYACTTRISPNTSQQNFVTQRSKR
T1 sequence (P00451 1668-2351 limits assumed): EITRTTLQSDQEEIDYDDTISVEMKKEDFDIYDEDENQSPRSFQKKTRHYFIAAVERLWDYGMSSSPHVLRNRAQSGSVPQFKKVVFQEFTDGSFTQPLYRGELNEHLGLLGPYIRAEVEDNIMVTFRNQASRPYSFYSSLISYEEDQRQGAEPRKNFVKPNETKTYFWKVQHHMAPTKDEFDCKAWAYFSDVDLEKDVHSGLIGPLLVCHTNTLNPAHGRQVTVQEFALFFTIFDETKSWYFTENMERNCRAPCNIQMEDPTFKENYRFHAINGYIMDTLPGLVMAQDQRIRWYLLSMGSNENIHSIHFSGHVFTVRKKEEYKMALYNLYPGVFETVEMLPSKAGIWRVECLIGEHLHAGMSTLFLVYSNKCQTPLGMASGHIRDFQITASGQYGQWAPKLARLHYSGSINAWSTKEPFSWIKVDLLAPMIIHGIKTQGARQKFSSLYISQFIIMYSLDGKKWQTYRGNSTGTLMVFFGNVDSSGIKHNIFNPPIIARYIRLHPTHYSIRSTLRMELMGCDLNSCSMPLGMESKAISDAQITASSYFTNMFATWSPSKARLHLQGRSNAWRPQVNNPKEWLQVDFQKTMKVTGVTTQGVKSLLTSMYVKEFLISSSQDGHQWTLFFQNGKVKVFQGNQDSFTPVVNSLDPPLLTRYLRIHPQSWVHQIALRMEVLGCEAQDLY
Experiment: Coagulation factor VIII activity in plasma after reducing agent + iodoacetic acid
Assay type: biochemical
Conditions: 5 min 37° C., then iodoacetic acid
Method: Human blood with anti-coagulating agent (9 parts blood+1 part 3.8% trisodium citrate) is centrifuged and the following tests with plasma were carried out:
The plasma is divided into 8 ml portions, which are preheated at 37° C. for 5 min. DTT is added in different concentrations, see table 1 below, and is incubated for 5 min. at 37° C. Then iodoacetic acid, 3 mol per mol DTT, is added, and incubation takes place for 15 min. at 37° C. The plasma samples are distributed in portions of about 0.2 ml and are immediately frozen at -70° C. Testing of different coagulation factors is made in known manner.
The plasma is divided into 8 ml portions, which are preheated at 37° C. for 5 min. DTE is added in different concentrations (see table 2), and is incubated for 5 minutes at 37° C. Then, iodoacetic acid (3 mol per mol DTE) is added and incubation is carried out for 15 minutes at 37° C. The plasma samples are distributed in portions of about 0.2 ml and are immediately frozen at -70° C. Testing of different coagulation factors is made in a manner known per se.
The plasma is divided into 8 ml portions, which are preheated at 37° C. for 5 minutes. Lipoic acid is added in different concentrations (see table 3), and is incubated for 5 minutes at 37° C. Then, iodoacetic acid (3 mol per mol lipoic acid) is added and incubation is carried out for 15 minutes at 37° C. The plasma samples are distributed in portions of about 0.2 ml and are immediately frozen at -70° C. Testing of different coagulation factors is made in a manner known per se.
The plasma is divided into 8 ml portions, which are preheated at 37° C. for 5 minutes. Mercaptoethanol is added in different concentrations (see table 4), and is incubated for 5 minutes at 37° C. Then, iodoacetic acid (3 mol per mol mercaptoethanol) is added and incubation is carried out for 15 minutes at 37° C. The plasma samples are distributed in portions of about 0.2 ml and are immediately frozen at -70° C. Testing of different coagulation factors is made in a manner known per se.
The plasma is divided into 8 ml portions, which are preheated at 37° C. for 5 minutes. Potassium borohydride is added in different concentrations (see table 5, and is incubated for 5 minutes at 37° C. Then, iodoacetic acid (3 mol per mol potassium borohydride) is added and incubation is carried out for 15 minutes at 37° C. The plasma samples are distributed in portions of about 0.2 ml and are immediately frozen at -70° C. Testing of different coagulation factors is made in a manner known per se.

[1] = human, 0.1 mg reducing agent/ml plasma (sample C)

| SMILES | activity at 100 µg/mL [1] | activity at 600 µg/mL (human, 0.6 mg reducing agent/ml plasma) | activity at 100 µg/mL (human, Table 1 sample D, 0.1 mg DTT/ml plasma) | Coagulation factor F VIII (plasma + 0.4 mg reducing agent) | Coagulation factor F VIII (plasma + 0.14 mg reducing agent) | Coagulation factor F VIII (plasma + 0.28 mg reducing agent) | Coagulation factor F VIII (plasma + 0.2 mg reducing agent) |
| --- | --- | --- | --- | --- | --- | --- | --- |
| O[C@H](CS)[C@H](O)CS [DTT, dithiothreitol] | 107% | 27% | 86% | 52 % of control |  |  |  |
| [BH4-].[K+] [KBH4, potassium borohydride] |  |  |  |  | 122 % of control | 105 % of control |  |
| O=C(O)CCCCC1CCSS1 (centres unmarked) [lipoic acid] | 111% |  |  | 111 % of control |  |  | 98 % of control |
| O[C@H](CS)[C@@H](O)CS [DTE, dithioerythritol] | 108% |  |  | 93 % of control |  |  | 116 % of control |
| OCCS [mercaptoethanol] |  |  |  | 85 % of control |  |  | 98 % of control |
